“And” between values parts separate entries of the source, which are not always exact repeats. Equal entries are not always repeated.
Legend:
IL-4 producing PBMC = assay: IL-4 ELISpot assay; format: cell-based, human; conditions: for IL-4 producing cells/200 000 PBMC after stimulation with 50 μM NiCl2 / IL-4 producing cells/200 000 PBMC, 50-0 / IL-4 producing cells/200 000 PBMC after stimulation with 100 μM NiCl2 / IL-4 producing cells/200 000 PBMC, 100-0: one line per subject; for IL-4 producing cells/200 000 PBMC, 50-0: 50 μM NiCl2 after subtraction of spontaneous spots; for IL-4 producing cells/200 000 PBMC, 100-0: 100 μM NiCl2 after subtraction of spontaneous spots
Excerpt: (§1) Blood from ACD patients or control individuals were obtained by venipuncture and collected in sterile heparinised glass vials. Peripheral blood mononuclear cells (PBMC) were separated by density gradient centrifugation over Ficoll-Hypaque. After separation, PBMC were washed twice in medium (RPMI 1640 containing glutamin, Hepes, Penicillin/Streptomycin and 10% fetal calf serum (FCS)) and used fresh for experiments. Alternatively, PBMC were frozen in 90% FCS and 10% dimethylsulfoxide and kept in liquid nitrogen until tested. Prior to being tested, frozen cells were thawed at 37° C. and medium was added dropwise whereafter the cells were washed twice with medium.
(§2) The PBMC were stimulated with various concentrations of NiCl2 and both proliferative responses and cytokine responses were analysed. NiCl2 at a stock concentration of 50 mM was mixed with medium and incubated for more than five minutes before being added to cells. PBMC diluted to a cell concentration of 4-6×10^6 cells/ml were mixed with an equal volume of NiCl2 diluted in medium resulting in a final concentration of 2×10^6 cells/ml and NiCl2 at concentrations ranging from 10-100 μM. The cell suspensions were incubated in plastic vials for 4 h at 37° C. in a humidified incubator. In parallel with incubating PBMC with NiCl2, PBMC at the same concentration were incubated with mitogen (1 μg phytohemagglutinin (PHA)/ml), control antigens (10 μg tetanus toxoid (TT) or purified protein derivative (PPD)/ml) or in the absence of stimuli.
Matched pairs of monoclonal antibodies (mAb) to human IL-4, IL-5 or IL-13 were used for the ELISpot assays (Mabtech AB, Stockholm, Sweden). For each pair, one mAb was used as a capture mAb: 82.4 (IL-4), TRFK5 (IL-5) and IL13-I (IL-13) and the other for detection, 12.1 (IL-4), 5A10 (IL-5) and IL13-II (IL-13). MAbs used for detection were biotinylated.
Ninetysix-well plates with polyvinylidene difluoride membranes (MAIPS45-10, Millipore) were treated with 100 μl of 70% EtOH for 2-10 min followed by six washes with 200 μl sterile deionized H2O. To each well, 100 μl of capture mAb at a concentration of 15 μg/ml in phosphate-buffered saline (PBS) was added and incubated over night at +4° C. The plates were washed three times with 200 μl or sterile PBS and three times with 200 μl medium containing 2% FCS. PBMC incubated for 4 h with or without stimuli in test tubes were suspended and 100 μl cell suspension (2×10^5 cells) was added to each well. After an additional incubation of 44 h, the wells were emptied and washed six times with 200 μl PBS. Biotinylated detection mAb at 1 μg/ml in PBS containing 0.5% FCS was added at a volume of 100 μl and incubated for 2 h at room temperature whereafter the wells were washed six times with PBS. Subsequently, 100 μl of SA-ALP (Streptavidin-Alkaline phosphatase, Mabtech) at 50 ng/ml in PBS with 0.5% FCS was added to each well and incubated for 1 h followed by washing in PBS six times before developing the wells with 100 μl nitroblue tetraxolium (NBT)/5-bromo-4-chloro-3-indolyl phosphate (BCIP) substrate (Sigma) for approximately 1 h. After rinsing the plates with tap water, the plates were dried and spots were counted using a light microscope.
(§3) Matched pairs of monoclonal antibodies (mAb) to human IL-4, IL-5, IL-13 or IFN-γ were used for ELISpot assays (Mabtech AB, Stockholm, Sweden). As in Example 4 above, for each pair, one mAb was used as a capture mAb and the other for detection. MAbs used for detection were biotinylated.
Ninetysix-well plates with polyvinylidene difluoride membranes (MAIPS45-10, Millipore) were treated with 100 μl of 70% EtOH for 2-10 min followed by six washes with 200 μl sterile deionized H2O. To each well, 100 μl of capture mAb at a concentration of 15 μg/ml in phosphate-buffered saline (PBS) was added and incubated over night at +4° C. The plates were washed three times with 200 μl or sterile PBS and three times with 200 μl medium containing 2% FCS. […]

IFN-γ producing PBMC = assay: IFN-γ ELISpot assay; format: cell-based, human; conditions: Kathon stimulation, spontaneous spots subtracted; allergic individuals, one line per patient
Procedure: Peripheral blood mononuclear cells (PBMC) were obtained from Kathon (methylisothiazolinone) allergy patients or control individuals as described in Example 2.
The PBMC were stimulated with Kathon (methylisothiazolinone) and cytokine responses were analysed.
as §3
Ninetysix-well plates with polyvinylidene difluoride membranes (MAIPS45-10, Millipore) were treated with 100 μl of 70% EtOH for 2-10 min followed by six washes with 200 μl sterile deionized H2O. To each well, 100 μl of capture mAb at a concentration of 15 μg/ml in phosphate-buffered saline (PBS) was added and incubated over night at +4° C. The plates were washed three times with 200 μl or sterile PBS and three times with 200 μl medium containing 2% FCS. PBMC incubated for 4 h with or without stimuli in test tubes were suspended and 100 μl cell suspension (2×10^5 cells) was added to each well. After an additional incubation of 44 h, the wells were emptied and washed six times with 200 μl PBS. […] After rinsing the plates with tap water, the plates were dried and spots were counted using a light microscope.

IL-5 producing PBMC = assay: IL-5 ELISpot assay; format: cell-based, human; conditions: for IL-5 production in response to NiCl2 (ELISpot): 50 μM NiCl2, FIG. 1
Excerpt: as §1, §2
(§4) Matched pairs of monoclonal antibodies (mAb) to human IL-4, IL-5 or IL-13 were used for the ELISpot assays (Mabtech AB, Stockholm, Sweden). […]
(§5) Ninetysix-well plates with polyvinylidene difluoride membranes (MAIPS45-10, Millipore) were treated with 100 μl of 70% EtOH for 2-10 min followed by six washes with 200 μl sterile deionized H2O. […] After rinsing the plates with tap water, the plates were dried and spots were counted using a light microscope. […]

IL-13 producing PBMC = assay: IL-13 ELISpot assay; format: cell-based, human; conditions: for IL-13 production in response to NiCl2 (ELISpot): 50 μM NiCl2, FIG. 1
Excerpt: as §1, §2, §4, §5

[1] = test system: ACD patients and control individuals; assay: Epicutaneous patch test; format: in vivo, human; conditions: 48 h
Procedure: Prior to the patch testing of the control group, blood samples for ELISpot analysis were taken to avoid an impact of the patch test on the ELISpot analysis. Epicutaneous patch tests using 5% NiSO4 in petrolatum was applied for 48 h whereafter the reaction, sites were inspected. […] All ACD patients were selected based on previous patch tests giving scores of 2+ or 3+ having 3+ as the highest score.
Prior to the patch testing of the control group, blood samples for ELISpot analysis were taken to avoid an impact of the patch test on the ELISpot analysis. Epicutaneous patch tests were applied for 48 h whereafter the reaction sites were inspected. […] This patient also gave a negative result in the ELISpot assay (see Table 2).

PBMC = assay: Proliferative response of PBMC (stimulation index); format: cell-based, human; conditions: one line per subject
Excerpt: as §1
The PBMC were stimulated with various concentrations of NiCl2 and both proliferative responses and cytokine responses were analysed. NiCl2 at a stock concentration of 50 mM was mixed with medium and incubated for more than five minutes before being added to cells. PBMC diluted to a cell concentration of 4-6×10^6 cells/ml were mixed with an equal volume of NiCl2 diluted in medium resulting in a final concentration of 2×10^6 cells/ml and NiCl2 at concentrations ranging from 10-100 μM. The cell suspensions were incubated in plastic vials for 4 h at 37° C. in a humidified incubator. […]

[2] = Kathon stimulation, spontaneous spots subtracted, allergic individuals, one line per patient
[3] = PBMC from allergic individuals (n=8)
[4] = PBMC from non-allergic individuals (n=7)

SMILES: Cn1sccc1=O [Kathon, methylisothiazolinone]
- Number of responding cells (spots) per 200,000 cells, IL-4 (IL-4 producing PBMC; [2]): 14 spots per 200,000 cells and 21 spots per 200,000 cells and 0 spots per 200,000 cells and 3 spots per 200,000 cells
- Number of responding cells (spots) per 200,000 cells, IFN-gamma (IFN-γ producing PBMC): 39 spots per 200,000 cells and 113 spots per 200,000 cells and 0 spots per 200,000 cells and 21 spots per 200,000 cells
- Number of responding cells (spots) per 200,000 cells, IL-5 (IL-5 producing PBMC; [2]): 3 spots per 200,000 cells and 5 spots per 200,000 cells and 0 spots per 200,000 cells and 2 spots per 200,000 cells
- Number of responding cells (spots) per 200,000 cells, IL-13 (IL-13 producing PBMC; [2]): 51 spots per 200,000 cells and 50 spots per 200,000 cells and 0 spots per 200,000 cells and 19 spots per 200,000 cells
- Patch test response ([1]; Kathon (methylisothiazolinone), non-allergic controls): None of the controls responded positively

SMILES: [Cl][Ni][Cl] [NiCl2]
- Proliferation (SI) (50 μM NiCl2) (PBMC; PBMC of allergic group): higher in the group of allergic individuals and 15.9 and 8.4 and 15.4 and 16.2 and 11.8 and 24.9 and 11.0 and 31.6 and 44.8 and 10.1 and 92.2
- Proliferation (SI) (50 μM NiCl2) (PBMC; PBMC of non-allergic group): 3.1 (2×) and 0.9 and 1.2 and 2.0 and 3.3 and 6.8 and 5.1 and 8.2
- IL-4 ELISpot mean values, allergic versus non-allergic group (IL-4 producing PBMC; 10 μM NiCl2, data not shown): higher mean values for the allergic group
- IL-4 producing cells/200 000 PBMC after stimulation with 50 μM NiCl2 (IL-4 producing PBMC; allergic group): 137 cells/200 000 PBMC and 48 cells/200 000 PBMC and 19 cells/200 000 PBMC and 26 cells/200 000 PBMC and 127 cells/200 000 PBMC and 27 cells/200 000 PBMC and 60 cells/200 000 PBMC and 9 cells/200 000 PBMC and 8 cells/200 000 PBMC and 13 cells/200 000 PBMC and 23 cells/200 000 PBMC
- IL-4 producing cells/200 000 PBMC after stimulation with 50 μM NiCl2 (IL-4 producing PBMC; non-allergic group): 3 cells/200 000 PBMC (2×) and 4 cells/200 000 PBMC (2×) and 9 cells/200 000 PBMC and 7 cells/200 000 PBMC and 1 cells/200 000 PBMC and 2 cells/200 000 PBMC (2×)
- IL-4 producing cells/200 000 PBMC, 50-0 (IL-4 producing PBMC; allergic group): 134 cells/200 000 PBMC and 47 cells/200 000 PBMC and 17 cells/200 000 PBMC and 21 cells/200 000 PBMC (2×) and 118 cells/200 000 PBMC and 25 cells/200 000 PBMC and 55 cells/200 000 PBMC and 5 cells/200 000 PBMC and 7 cells/200 000 PBMC and 12 cells/200 000 PBMC
- IL-4 producing cells/200 000 PBMC, 50-0 (IL-4 producing PBMC; non-allergic group): 1 cells/200 000 PBMC and 2 cells/200 000 PBMC and 4 cells/200 000 PBMC and 0 cells/200 000 PBMC (6×)
- IL-4 producing cells/200 000 PBMC after stimulation with 100 μM NiCl2 (IL-4 producing PBMC; allergic group): 21 cells/200 000 PBMC and 28 cells/200 000 PBMC (2×) and 122 cells/200 000 PBMC and 30 cells/200 000 PBMC and 63 cells/200 000 PBMC and 16 cells/200 000 PBMC and 18 cells/200 000 PBMC and 24 cells/200 000 PBMC
- IL-4 producing cells/200 000 PBMC after stimulation with 100 μM NiCl2 (IL-4 producing PBMC; non-allergic group): 5 cells/200 000 PBMC and 8 cells/200 000 PBMC (2×) and 4 cells/200 000 PBMC (2×) and 14 cells/200 000 PBMC and 1 cells/200 000 PBMC and 6 cells/200 000 PBMC
- IL-4 producing cells/200 000 PBMC, 100-0 (IL-4 producing PBMC; allergic group): 19 cells/200 000 PBMC and 23 cells/200 000 PBMC (2×) and 113 cells/200 000 PBMC and 28 cells/200 000 PBMC and 58 cells/200 000 PBMC and 12 cells/200 000 PBMC and 17 cells/200 000 PBMC and 25 cells/200 000 PBMC
- IL-4 producing cells/200 000 PBMC, 100-0 (IL-4 producing PBMC; non-allergic group): 3 cells/200 000 PBMC (2×) and 1 cells/200 000 PBMC (2×) and 5 cells/200 000 PBMC and 2 cells/200 000 PBMC and 0 cells/200 000 PBMC and 4 cells/200 000 PBMC
- IL-5 production in response to NiCl2 (ELISpot) (IL-5 producing PBMC; [3]): shown to produce
- IL-5 production in response to NiCl2 (ELISpot) (IL-5 producing PBMC; [4]): this was not seen
- IL-13 production in response to NiCl2 (ELISpot) (IL-13 producing PBMC; [3]): shown to produce
- IL-13 production in response to NiCl2 (ELISpot) (IL-13 producing PBMC; [4]): this was not seen

SMILES: O=S(=O)([O-])[O-].[Ni+2] [NiSO4]
- Patch test reactivity ([1]; 5% NiSO4 in petrolatum, non-allergic group, one line per subject): None of the controls responded positively
